Reference: ChEMBL document CHEMBL1143496, “Privileged structure based ligands for melanocortin receptors--substituted benzylic piperazine derivatives” (Bioorg Med Chem Lett, 2005)

What follows are molecules tested against Melanocortin receptor 4 (Homo sapiens, UniProt P32245) (assay: Inhibition of [125I]-NDP MSH binding to human Melanocortin 4 receptor).
Chain of Melanocortin receptor 4 (P32245 whole entry): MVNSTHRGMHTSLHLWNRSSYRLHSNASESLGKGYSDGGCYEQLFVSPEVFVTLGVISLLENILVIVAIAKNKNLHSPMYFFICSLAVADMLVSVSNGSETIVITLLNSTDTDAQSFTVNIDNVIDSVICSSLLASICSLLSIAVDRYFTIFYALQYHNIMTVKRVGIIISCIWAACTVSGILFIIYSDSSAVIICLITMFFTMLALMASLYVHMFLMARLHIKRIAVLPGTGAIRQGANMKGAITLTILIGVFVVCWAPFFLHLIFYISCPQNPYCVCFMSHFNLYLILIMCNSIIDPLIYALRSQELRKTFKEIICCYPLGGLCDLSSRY

Compound | Ki
CCN(CC)CC(CCCc1ccccc1)N1CCN(C)CC1 (configuration not stated) | 110 nM
CCN(CC)CC(c1cccc(C(F)(F)F)c1)N1CCN(C)CC1 (configuration not stated) | 150 nM
CC(c1ccccc1)N1CCN(C)CC1 (configuration not stated) | 700 nM
CCN(CC)CC(CCc1ccccc1)N1CCN(C)CC1 (configuration not stated) | 130 nM
CCN(CC)CC(c1ccc(F)cc1F)N1CCN(C)CC1 (configuration not stated) | 100 nM
COC(=O)NCC(c1ccccc1F)N1CCN(C)CC1 (configuration not stated) | 483 nM
CCN(CC(c1ccccc1F)N1CCN(C)CC1)C(C)=O (configuration not stated) | 106 nM
CCN(CC)C[C@H](c1ccccc1)N1CCN(C)CC1 | 190 nM
CCN(CC)C(=O)C(c1ccccc1F)N1CCN(C)CC1 (configuration not stated) | 125 nM
CCN(CC)CC(c1ccccc1Cl)N1CCN(C)CC1 (configuration not stated) | 70 nM
CCN(CC)CC(c1ccccc1C)N1CCN(C)CC1 (configuration not stated) | 70 nM
CCN(CC)CC(c1ccccc1F)N1CCN(C)CC1 (configuration not stated) | 20 nM
CN1CCN(C(CNS(C)(=O)=O)c2ccccc2F)CC1 (configuration not stated) | 472 nM
CCN(CC(c1ccccc1F)N1CCN(C)CC1)C(=O)OC (configuration not stated) | 261 nM
CCN(CC(c1ccccc1F)N1CCN(C)CC1)S(C)(=O)=O (configuration not stated) | 157 nM
CC(=O)NCC(c1ccccc1F)N1CCN(C)CC1 (configuration not stated) | 467 nM
CCN(CC)CC(c1ccc(C(F)(F)F)cc1)N1CCN(C)CC1 (configuration not stated) | 200 nM
CCN(CC)CC(c1c(F)cccc1F)N1CCN(C)CC1 (configuration not stated) | 150 nM
CCN(CC)C[C@@H](c1ccccc1F)N1CCN(C)CC1 | 111 nM
CN1CCN(Cc2ccccc2)CC1 | 2000 nM
CCN(CC)CC(c1ccccc1C(F)(F)F)N1CCN(C)CC1 (configuration not stated) | 40 nM
CCN(CC)CC(c1ccccc1OC)N1CCN(C)CC1 (configuration not stated) | 190 nM
CCN(CC)CC(Cc1ccccc1)N1CCN(C)CC1 (configuration not stated) | 40 nM
CCN(CC)C[C@@H](c1ccccc1)N1CCN(C)CC1 | 50 nM
CCN(CC)C[C@H](c1ccccc1F)N1CCN(C)CC1 | 14 nM
CCN(CC)Cc1ccccc1N1CCN(C(=O)[C@@H](Cc2ccc(Cl)cc2)NC(=O)[C@H]2Cc3ccccc3CN2)CC1 | 14 nM
CCN(CC)CC(c1ccccc1)N1CCN(C)CC1 (configuration not stated) | 90 nM
